Assays:
[1] = target: T1, GPR6:Gsα-Fusion Protein (Homo sapiens, UniProt P46095); assay: [35S]GTPγS membrane binding assay (Example 4A); assay type: biochemical; conditions: mean +/- standard deviation (number of assays in brackets); read-out: IC50 Values GTP Assay Example 4A
T1 construct: expressed in transfected cells
Protocol: The assay plates were then centrifuged at 400 rpm for 15 minutes at room temperature and then subsequently aspirated and counted in a scintillation counter.
Membranes expressing the GPCR6:Gsα-Fusion Protein (see Example 2) and for use in the direct identification of candidate compounds as inverse agonists, agonists or partial agonists were prepared as follows:
All materials were kept on ice throughout the procedure. Firstly, the media was aspirated from a confluent monolayer of cells, followed by rinse with 10 ml cold PBS, followed by aspiration. Thereafter, 5 ml of membrane Scrape Buffer was added to scrape cells; this was followed by transfer of cellular extract into 50 ml centrifuge tubes (centrifuged at 20,000 rpm for 17 minutes at 4° C.). Thereafter, the supernatant was aspirated and the pellet was resuspended in 30 ml Membrane Wash Buffer followed by centrifuge at 20,000 rpm for 17 minutes at 4° C. The supernatant was then aspirated and the pellet resuspended in Binding Buffer. This was then homogenized using a Brinkman polytron™ homogenizer (15-20 second bursts until the all material was in suspension). This is referred to herein as “Membrane Protein”.
Candidate compounds (Tripos, Inc., St. Louis, Mo.) were received in 96-well plates (these can be frozen at −80° C.). Membrane Protein (or membranes with expression vector excluding the GPR6:Gsα-Fusion Protein, as control), were homogenized briefly until in suspension. Protein concentration was then determined using the Bradford Protein Assay set forth above. […] Thereafter, 100 ul GDP Buffer was added to each well of a Wallac Scintistrip™ (Wallac). A 5 ul pin-tool was then used to transfer 5 ul of a candidate compound into such well (i.e., 5 ul in total assay volume of 200 ul is a 1:40 ratio such that the final screening concentration of the candidate compound is 10 uM). Again, to avoid contamination, after each transfer step the pin tool was rinsed in three reservoirs comprising water (1×), ethanol (1×) and water (2×)—excess liquid should be shaken from the tool after each rinse and dried with paper towels and kimwipes™. Thereafter, 50 ul of Membrane Protein was added to each well (a control well comprising membranes without the GPCR Fusion Protein is also utilized), and pre-incubated for 5-10 minutes at room temperature (the plates were covered with foil in that the candidate compounds obtained from Tripos are light sensitive). Thereafter, 50 ul of [^35S]GTPγS (0.6 nM) in Binding Buffer was added to each well, followed by incubation on a shaker for 60 minutes at room temperature (again, in this example, plates were covered with foil). The assay was then stopped by spinning of the plates at 4000 RPM for 15 minutes at 22° C. The plates were then aspirated with an 8 channel manifold and sealed with plastic plate covers. The plates were then read on a Wallac 1450 using setting “Prot. #37” (as per manufacturer instructions).
The initial or “primary” screen designed to directly identify, e.g., human GPR6 receptor inverse agonists, consisted of the membrane-based GTPγS binding assay of Example 4A utilizing membranes prepared from 293 stable cells. Candidate compounds directly identified as inhibiting receptor-mediated increases in GTPγS as set forth below were considered active “leads”.
It is preferred that following such direct identification, IC50 (inverse agonist) or EC50 (agonist) values be determined; those having ordinary skill in the art are credited with utilizing IC50 and EC50 assay protocols of choice. FIG. 4 provides a representative IC50 curve for compound ARE112 using the assay protocol of Example 4A.

[2] = target: T2, GPR6 (Homo sapiens, UniProt P46095); assay: membrane-based cyclic AMP confirmation assay (Example 4C); assay type: biochemical; conditions: mean +/- standard deviation (number of assays in brackets); read-out: IC50 Values Cyclic AMP Assay Example 4C
T2 construct: expressed in transfected cells; 293 cells are used elsewhere
T2 sequence (P46095 whole entry): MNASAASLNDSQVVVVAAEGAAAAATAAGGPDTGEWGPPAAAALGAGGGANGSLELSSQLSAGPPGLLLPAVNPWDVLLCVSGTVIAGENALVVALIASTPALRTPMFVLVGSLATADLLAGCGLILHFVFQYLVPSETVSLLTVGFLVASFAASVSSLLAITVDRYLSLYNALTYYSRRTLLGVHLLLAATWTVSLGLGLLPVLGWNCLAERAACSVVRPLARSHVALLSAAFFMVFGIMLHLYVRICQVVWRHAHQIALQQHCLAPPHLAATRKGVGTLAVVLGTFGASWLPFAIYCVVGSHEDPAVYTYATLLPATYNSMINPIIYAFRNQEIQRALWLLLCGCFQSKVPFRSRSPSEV
Text: Using an independent assay approach to provide confirmation of a directly identified candidate compound as set forth above, it is preferred that a confirmation assay then be utilized. In this case, the preferred confirmation assay is membrane-based cyclic AMP (cAMP) assay.
A modified Flash Plate™ Adenylyl Cyclase kit (New England Nuclear; Cat. No. SMP004A) was utilized for confirmation of candidate compounds directly identified as inverse agonists and agonists to endogenous, constitutively activated orphan GPCRs in accordance with the following protocol.
Transfected stable cells were harvested approximately three days after transfection. Membranes were prepared by homogenization of suspended cells in buffer containing 20 mM HEPES, pH 7.4 and 10 mM MgCl2. Homogenization was performed on ice using a Brinkman Polytron™ for approximately 10 seconds. The resulting homogenate was centrifuged at 20,000 rpm for 20 minutes at 4° C. The resulting pellet was then resuspended in buffer containing 20 mM HEPES, pH 7.4 and 0.1 mM EDTA, homogenized for 10 seconds, followed by centrifugation at 20,000 rpm for 20 minutes at 4° C. The resulting pellet can be stored at −80° C. until utilized. On the day of direct identification screening, the membrane pellet is slowly thawed at room temperature, resuspended in buffer containing 20 mM HEPES, pH 7.4, 100 mM NaCl and 10 mM MgCL2, to yield a final protein concentration of 0.60 mg/ml (the resuspended membranes are placed on ice until use).
Candidate compounds identified as per above (if frozen, thawed at room temperature) were added to plate wells (3 μl/well; 12 μM final assay concentration), together with 50 μl Membrane Protein (30 μg/well) and 50 μl of Assay Buffer. This admixture was then incubated for 30 minutes at room temperature, with gentle shaking.
Following the incubation, 100 μl of Detection Buffer was added to each well, followed by incubation for 2-20 hours. Plates were subsequently aspirated and then counted in a Wallac MicroBeta™ plate reader using “Prot. #31” (as per manufacturer instructions).

[3] = Food/water intake and body weight in 24-hour food deprived rats, oral gavage (PO); assay type: in vivo, rat
Protocol: Based upon the in vivo data developed, oral bioavailability of compound ARE112 was determined. The compound was administered by oral gavage at doses ranging from 6.75 to 54 mg/kg. The data presented in FIGS. 9A and 9B support the conclusion that oral administration of ARE112 also decreases food intake in both food-deprived and non-food deprived rats. […] In FIG. 9A, rats were deprived 24 hours prior to oral administration of the compound. In this assay, the vehicle-treated rats at 2.5 hours consumed […] of food while injected rats; particularly rats administered with 27 and 54 mg/kg of ARE 112, ate about 6 and 4 grams, respectively. […] (See, FIG. 9A).
Several other GPR6 inverse agonists were also assessed under 24-hour food deprived conditions, with PO administration. The analogs listed below were tested at 200 μmol/kg, which is equivalent to 54 mg/kg. In addition, ARE114 was also assessed at […]. Data are summarized below in Table C:
In a second assay, tested under the same conditions, several other analogs were assessed at 100 μmol/kg.
In FIG. 10, rats were deprived 24 hours prior to oral administration of the compound. In this assay, analogs ARE130, ARE135, ARE136, and ARE140, were administered at a dose of 100 μmol/kg. Three analogs, particularly, ARE130, ARE136 and ARE140 evidenced a slow intake of food (e.g., about 1 to 1.5 grams every two hours) over an eight hour period post-administration; while the vehicle rat consumed about 2 to 2.5 grams food every two hours. Similar to the vehicle rat, analog ARE135, an opened ring structure, evidenced that over an eight hour period post-administration the rats increasingly consumed about 2.5 grams every two hours. (See, FIG. 10A). Furthermore, the body weight of the vehicle rat and administered rats with analog ARE135 gained about 19.5 grams. On the other hand, the closed ring structures evidenced a decrease in body weight gain as follows: ARE112-6 grams, ARE130-9 grams, ARE136-11 grams and ARE140-14 grams. See, FIG. 10C.

[4] = 100 μmol/kg PO, second assay, Table D, vehicle 19.25

T1 sequence (P46095 with tags, fused parts or gaps): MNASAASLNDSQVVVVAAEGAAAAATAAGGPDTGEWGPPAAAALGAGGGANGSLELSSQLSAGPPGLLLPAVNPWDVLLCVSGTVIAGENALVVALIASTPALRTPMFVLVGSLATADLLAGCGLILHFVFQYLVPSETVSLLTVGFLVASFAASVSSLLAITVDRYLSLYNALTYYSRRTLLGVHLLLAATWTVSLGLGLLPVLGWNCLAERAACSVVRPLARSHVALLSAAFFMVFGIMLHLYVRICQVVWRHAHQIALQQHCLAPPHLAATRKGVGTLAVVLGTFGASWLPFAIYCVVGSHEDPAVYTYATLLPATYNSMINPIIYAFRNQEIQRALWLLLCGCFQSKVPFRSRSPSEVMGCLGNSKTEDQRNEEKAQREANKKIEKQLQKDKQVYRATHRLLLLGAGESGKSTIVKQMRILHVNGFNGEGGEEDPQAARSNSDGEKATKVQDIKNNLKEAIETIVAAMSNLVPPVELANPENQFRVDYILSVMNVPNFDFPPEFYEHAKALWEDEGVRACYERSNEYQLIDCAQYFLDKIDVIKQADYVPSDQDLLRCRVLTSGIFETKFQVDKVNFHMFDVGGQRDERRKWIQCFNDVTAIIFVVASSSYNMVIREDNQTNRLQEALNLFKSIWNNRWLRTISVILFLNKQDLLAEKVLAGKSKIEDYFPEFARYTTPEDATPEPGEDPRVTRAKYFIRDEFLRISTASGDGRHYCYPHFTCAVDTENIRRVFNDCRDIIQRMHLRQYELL

IC50 [1] [nM] | IC50 [2] [nM] | Structure (SMILES) | other results
68300 | 160000 | O=C(NC(=S)N1CCNC1=S)c1ccco1 [ARE143, N-(2-thioxo-imidazolidine-1-carbothioyl)-furan-2-carboxamide] | –
2460 | – | O=C(NC(=S)N1CCNC1=S)c1cnn(-c2ccc(Cl)cc2)c1C(F)(F)F [ARE153, N-(2-thioxo-imidazolidine-1-carbothioyl)-2-(4-chlorophenyl)-3-(trifluoromethyl)pyrazole-4-carboxamide] | –
6560 | 850 | O=C(NC(=S)N1CCNC1=S)c1cccnc1 [ARE155, N-(2-thioxo-imidazolidine-1-carbothioyl)-pyridine-3-carboxamide] | –
43000 | – | O=C(NC(=S)N1CCNC1=S)c1ccccc1F [ARE131, N-(2-thioxo-imidazolidine-1-carbothioyl)-2-fluorobenzamide] | –
– | 80000 | CSc1ncccc1C(=O)NC(=S)N1CCNC1=S [ARE154, N-(2-thioxo-imidazolidine-1-carbothioyl)-pyridine-2-methylthio-3-carboxamide] | –
190 | – | O=C(N=C1SSC2=NCCN21)c1cnn(-c2ccc(Cl)cc2)c1C(F)(F)F [ARE152, N-(5,6dihydro-3H-imidazo[2,1-c]-1,2,4-dithiazol-3-ylidene)-2-(4-chlorophenyl)-3-(trifluoromethyl)pyrazole-4-carboxamide] | –
2430 | 5830 | O=C(NC(=S)N1CCNC1=S)c1ccon1 [ARE149, N-(2-thioxo-imidazolidine-1-carbothioyl)-isoxazole-3-carboxamide] | –
330 | 100 | O=C(N=C1SSC2=NCCN21)c1ccon1 [ARE150, N-(5,6dihydro-3H-imidazo[2,1-c]-1,2,4-dithiazol-3-ylidene)-isoxazole-3-carboxamide] | –
– | 100000 | O=C(NC(=S)N1CCNC1=S)c1cccc2ccccc12 [ARE137, N-(2-thioxo-imidazolidine-1-carbothioyl)-naphthyl-1-carboxamide] | –

The remaining lines, values behind:

Structure (SMILES) | IC50 [1] [nM] | IC50 [2] [nM] | other results
O=C(NC(=S)N1CCNC1=S)c1ccccc1 [ARE113, N-(2-thioxo-imidazolidine-1-carbothioyl)-benzamide] | 100000 | – | –
COc1ccc(C(=O)N=C2SSC3=NCCN32)cc1 [ARE122, N-(5,6-dihydro-3H-imidazo[2,1-c]-1,2,4-dithiazol-3-ylidene)-4-methoxybenzamide] | 830 | 210 | –
O=C(N=C1SSC2=NCCN21)c1ccc(C(F)(F)F)cc1 [ARE116, N-(5,6-dihydro-3H-imidazo[2,1-c]-1,2,4-dithiazol-3-ylidene)-4-trifluoromethylbenzamide] | 570 | 170 | –
COc1cccc(C(=O)NC(=S)N2CCNC2=S)c1 [ARE123, N-(2-thioxo-imidazolidine-1-carbothioyl)-3-methoxybenzamide] | 56000 | 51000 | –
COc1cccc(C(=O)N=C2SSC3=NCCN32)c1 [ARE124, N-(5,6-dihydro-3H-imidazo[2,1-c]-1,2,4-dithiazol-3-ylidene)-3-methoxybenzamide] | 310 | 400 | –
Cc1cccc(C(=O)NC(=S)N2CCNC2=S)c1 [ARE125, N-(2-thioxo-imidazolidine-1-carbothioyl)-3-methylbenzamide] | 3800 | 120000 | –
O=C(NC(=S)N1CCNC1=S)c1ccc(F)cc1 [ARE127, N-(2-thioxo-imidazolidine-1-carbothioyl)-4-fluorobenzamide] | 1250 | 480 | –
O=C(NC(=S)N1CCNC1=S)c1ccc(C(F)(F)F)cc1 [ARE115, N-(2-thioxo-imidazolidine-1-carbothioyl)-4-trifluoromethylbenzamide] | 1570 | 3650 | –
O=C(NC(=S)N1CCNC1=S)c1cccc(F)c1 [ARE129, N-(2-thioxo-imidazolidine-1-carbothioyl)-3-fluorobenzamide] | 3190 | 2620 | –
Cc1cccc(C(=O)N=C2SSC3=NCCN32)c1 [ARE126, N-(5,6-dihydro-3H-imidazo[2,1-c]-1,2,4-dithiazol-3-ylidene)-3-methylbenzamide] | 790 | 140 | –
O=C(/N=C1\SSC2=NCCN21)c1ccc2ccccc2c1 [ARE136] | – | – | Cumulative Food Intake (g) (8 hr post administration) ([3]; 100 μmol/kg PO, second assay, Table D, vehicle 14.0): 9.0 g; Body Weight Gain (g) (6 hr post administration) [3, 4]: 11.0 g; Cumulative Water Intake (g) (6 hr post administration) [3, 4]: 15.25 g; water drunk less than the vehicle animal (FIG. 10B) ([3]; 100 μmol/kg oral): ~4 grams; body weight gain (FIG. 10C) ([3]; 100 μmol/kg oral, vehicle about 19.5 grams): 11 grams
O=C(NC(=S)N1CCNC1=S)c1cccs1 [ARE111, N-(2-thioxo-imidazolidine-1-carbothioyl)-thiophene-2-carboxamide] | 2790 | 1960 | –
O=C(NC(=S)N1CCNC1=S)c1ccc(Cl)cc1 [ARE119, N-(2-thioxo-imidazolidine-1-carbothioyl)-4-chlorobenzamide] | 450 | 1970 | –

— patent US6420563B1, “Small molecule modulators of G protein-coupled receptor six” (Arena Pharmaceuticals, Inc., priority 1998, dated 2002)
